Some test systems named below: CAKI-1; COLO 205; EKVX; HCC 2998; HCT-116; HL-60; HOP-62; HOP-92; LOX IMVI; Malme-3M; NCI-H460; NCI-H522; OVCAR-5; OVCAR-8; SF-295; SK-MEL-28; SNB-19; ACHN; U-251; SF-539.
Common to all, as to assay: NCI anticancer screen, dose series, 48 h

Structures are written as SMILES.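 Method: 48-hour compound exposure of cells in 96-well plates, five concentrations, linear interpolation of endpoints. The concentration for 50% growth inhibition is given as GI50.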 Calls of active or inactive are those of the source. Rule as the data show it: active = GI50 up to about 1.1 µM and inactive = higher. Some results are limits rather than exact numbers.

As for `C#CCn1c(=O)c(C#N)c(O)c2cc3ccccc3nc21`, the GI50 in the assay on CAKI-1, with COLO 205, in the assay with EKVX, in the assay on HCC 2998, in the assay on HCT-116 and in the assay with HL-60 was > 100 µM (inactive) throughout. The GI50 with HOP-62, in the assay with HOP-92, in the assay with LOX IMVI, in the assay with Malme-3M, with NCI-H460 and with NCI-H522 was > 100 µM (inactive) in each case. The GI50 in the assay with OVCAR-5 is > 84.9 µM (inactive); with OVCAR-8, > 100 µM (inactive); with SF-295, > 100 µM (inactive); with SK-MEL-28, > 100 µM (inactive); with SNB-19, > 100 µM (inactive).

Consider `C(/C=N/c1ccccc1)=C(/Nc1ccccc1)C12CC3CC(CC(C3)C1)C2`, for which the GI50 in the assay on ACHN is 13.6 µM (inactive); in the assay with CAKI-1, 15.4 µM (inactive); with COLO 205 it was 15.9 µM (inactive); in the assay on EKVX, 20.7 µM (inactive); with HCC 2998, 15.8 µM (inactive); in the assay on HCT-116, 13.2 µM (inactive). Also, the GI50 was 12.1 µM (inactive) in the assay on HL-60; 19.2 µM (inactive) in the assay on HOP-62; 25.2 µM (inactive) with HOP-92; 12.9 µM (inactive) with LOX IMVI; 18.5 µM (inactive) in the assay on Malme-3M; 23.6 µM (inactive) in the assay with NCI-H460. Further, the GI50 was 10.4 µM (inactive) in the assay on NCI-H522; 15.2 µM (inactive) in the assay on OVCAR-5; 20.7 µM (inactive) in the assay on OVCAR-8; 16.6 µM (inactive) in the assay on SF-295; 20.5 µM (inactive) with SK-MEL-28; 17.2 µM (inactive) with SNB-19. The GI50 in the assay with U-251 was 15 µM (inactive).

In the case of `OCCOCn1nc(-c2ccccc2)nc1-c1cnccn1`, the GI50 in the assay with COLO 205, in the assay on EKVX, in the assay on HCC 2998, in the assay on HCT-116, in the assay with HL-60 and in the assay with HOP-62 was > 100 µM (inactive) each time. Besides, the GI50 with HOP-92, in the assay on LOX IMVI, with NCI-H460, with NCI-H522, in the assay on OVCAR-5 and with OVCAR-8 was > 100 µM (inactive) in each case. For the same compound, the GI50 in the assay with SF-295, in the assay on SF-539, in the assay with SK-MEL-28, with SNB-19 and with U-251 was > 100 µM (inactive) each time.

With `O=Cc1ccc(CCl)cc1`, the GI50 in the assay on ACHN was 22.5 µM (inactive); with COLO 205 it was 48 µM (inactive); in the assay on EKVX it was 45.6 µM (inactive); in the assay with HCT-116, 14.5 µM (inactive); with HL-60 it was 4.56 µM (inactive); in the assay on HOP-92, 27.7 µM (inactive). The GI50 in the assay on LOX IMVI was 11 µM (inactive); in the assay with NCI-H460 it was 18.6 µM (inactive); in the assay on NCI-H522, 19.7 µM (inactive); in the assay on OVCAR-5 it was 20.5 µM (inactive); with OVCAR-8, 18.8 µM (inactive); with SF-295, 17.4 µM (inactive). Further, the GI50 was 17.1 µM (inactive) in the assay on SF-539, 17.5 µM (inactive) in the assay with SK-MEL-28, 14.7 µM (inactive) with SNB-19 and 18.2 µM (inactive) in the assay on U-251.

Take `Nc1ccc(C2(c3ccc(N)cc3)C3CC4CC(C3)CC2C4)cc1`: the GI50 in the assay on ACHN was 18.7 µM (inactive); with CAKI-1, 15 µM (inactive); in the assay with EKVX it was 16.4 µM (inactive); with HCC 2998 it was 20.8 µM (inactive); in the assay on HCT-116, 21.9 µM (inactive); in the assay with HL-60, 19.2 µM (inactive). Also, the GI50 was 13.6 µM (inactive) in the assay with HOP-62; 12.4 µM (inactive) in the assay on HOP-92; 16.2 µM (inactive) in the assay on LOX IMVI; 15.6 µM (inactive) in the assay with NCI-H522; 15.8 µM (inactive) with OVCAR-5; 7.73 µM (inactive) in the assay with OVCAR-8. The GI50 was 0.0592 µM (active) in the assay with SF-295, 14.9 µM (inactive) with SK-MEL-28, 14.6 µM (inactive) in the assay on SNB-19 and 18.3 µM (inactive) with U-251.

As to `O=C(NC1C(O)C(O)C(CO)OC1n1cc(F)c(=O)[nH]c1=O)OCc1ccccc1` (configuration not stated), the GI50 in the assay on ACHN, in the assay on CAKI-1, in the assay on COLO 205, in the assay with HCC 2998, with HCT-116 and with HL-60 was > 100 µM (inactive) each time. Further, the GI50 with HOP-62, in the assay on HOP-92, in the assay with LOX IMVI, in the assay on Malme-3M, in the assay with NCI-H460 and with NCI-H522 was > 100 µM (inactive) in each case. For the same compound, the GI50 in the assay with OVCAR-5, in the assay on SF-295, in the assay on SK-MEL-28, in the assay with SNB-19 and with U-251 was > 100 µM (inactive) each time.

In the case of `NCCCCN(CCCN)Cc1ccccc1`, the GI50 in the assay on ACHN, in the assay on CAKI-1, in the assay on COLO 205, with EKVX, in the assay with HCC 2998 and with HCT-116 was > 100 µM (inactive) each time. Also, the GI50 in the assay on HL-60, in the assay with HOP-62, in the assay on HOP-92, in the assay with NCI-H460, with NCI-H522 and in the assay on OVCAR-5 was > 100 µM (inactive) each time. Further, the GI50 with OVCAR-8, in the assay on SF-295, with SF-539, in the assay with SK-MEL-28, in the assay with SNB-19 and with U-251 was > 100 µM (inactive) each time.

As to `Oc1cc(-c2ccccc2)nc2c(S)cccc12`, the GI50 in the assay on ACHN was 95.3 µM (inactive); in the assay with COLO 205, > 100 µM (inactive); in the assay on HCC 2998, > 100 µM (inactive); in the assay on HCT-116 it was > 100 µM (inactive); in the assay on HL-60 it was 97.9 µM (inactive); with HOP-62 it was > 100 µM (inactive). The GI50 with HOP-92 was 63.2 µM (inactive); with Malme-3M, > 100 µM (inactive); in the assay on NCI-H460 it was > 100 µM (inactive); in the assay on NCI-H522 it was > 100 µM (inactive); with OVCAR-5, > 100 µM (inactive); with OVCAR-8, > 100 µM (inactive). Moreover, the GI50 in the assay on SF-295, in the assay on SF-539, in the assay on SK-MEL-28, with SNB-19 and with U-251 was > 100 µM (inactive) throughout.

The values are drawn from ChEMBL document CHEMBL1201862, “PubChem BioAssay data set” (2004).
